US20070048377A1, “Drug compositions containing controlled release hypromellose matrices” (priority 2005, published 2007)
Counter-ions that a name gives are not always drawn.

Tests used:
[1] = Verapamil Hydrochloride and PVAP chemical interaction (precipitate on combining saturated methanol solutions); assay type: physicochemical; details: 50 grams of each combined
Source text: To determine that the influence on the drug release is not due to the chemical interaction between Verapamil HCL and PVAP, following investigation was made.
• a. Purpose—To determine if change in drug release is due to polymer drug interaction, where increasing PVAP would potentially cause decreased drug release due to binding with the drug. • b. Method— • i. Dissolved 20 grams of Verapamil Hydrochloride in 52 grams of methanol to form a saturated solution. • ii. Dissolved 10 grams of PVAP in 52 grams of methanol to form a saturated solution. • iii. A clear solution was obtained for each sample. • iv. 50 grams of each solution was combined and examined for the presence of a precipitate. • v. […] Conclusion • A lack of chemical interaction has been shown between PVAP and the drug which is contra to some of previously published studies on the interactions of Verapamil HCl with enteric polymers. It also rules out that the reduction of drug release by using PVAP is due to a chemical interaction with Verapamil HCl.

[2] = Viscosity investigation (Brookfield viscometer DV-II+); assay type: physicochemical
Source text: • a. Dispersion Characterization • PVAP, HPMC, or Verapamil HCl was dispersed in 0.1N HCl or phosphate buffer, pH 6.8. Viscosity was characterized neat and in binary or tertiary mixtures. • b. Dry Blending Mixtures Characterization • i.

## COc1ccc(CCN(C)CCCC(C#N)(c2ccc(OC)c(OC)c2)C(C)C)cc1OC (stereo not drawn) [Verapamil HCl - 48% solution, Verapamil Hydrochloride]
[1]
  presence of a precipitate (chemical interaction with PVAP): no precipitate formed
[2]; 0.1N HCl
  Viscosity: 50.8 cP
[2]; Phosphate Buffer, pH 6.8
  Viscosity: 12.4 cP
